# Reference: US10889555B2, “Sulfonamide compound or salt thereof” (Taiho Pharmaceutical Co., Ltd., priority 2016, dated 2021)
# Tested on: HCC 1806 cells
# Test: Cell proliferation inhibitory effect on human breast cancer cell line (crystal violet, 72 hours)
# Format: cell-based
# Conditions: Homo sapiens, HCC1806, 72 h, read-out: Cell growth suppression IC50
# Protocol: Human derived breast cancer cell line HCC 1806 cells were daily passaged at a cell density not exceeding 80% in ATCC recommended Roswell Park Memorial Institute medium (RPMI-1640) containing 10% fetal bovine serum (FBS). In order to start the test of cell proliferation inhibitory activity, HCC 1806 cells were suspended in the above medium, after seeing at 180 μL in each well of a 96-well flat bottom plate so that the number of cells per well was 2,000, the cells were cultured at 37° C. for 1 day in an incubator containing 5% carbon dioxide gas. On the next day, the test compound was dissolved in DMSO, and 20 μL of a drug additive solution diluted serially with distilled water to 10 times of the final concentration was added to each well of the culture plate of the cells, and the cells were cultured at 37° C. for 72 hours in an incubator containing 5% carbon dioxide gas. After culturing for 72 hours, 20 μL of glutaraldehyde was added to each well and allowed to stand for 30 minutes, then the plate was washed 10 times with water and was dried. 100 μL of a stain solution (0.05% crystal violet in a 20% methanol solution) was added to each well and allowed to stand for 30 minutes, then the plate was washed 10 times with water and was dried. 100 μL of an extract solution (0.1 N NaH2PO4: 100% ethanol=1:1) was added to each well and mixed, and the mixture was measured at a wavelength of 540 nm using a plate reader (MTP-450 manufactured by Corona Electric Co., Ltd.). The growth inhibition rate was calculated from the following formula, and the concentration (IC50 (μM)) of a test compound inhibiting 50% was determined. Growth inhibition rate (%)={(C−B)−(T−B)}/(C−B)×100
# T: Absorbance of well to which test compound was added
# C: Absorbance of wells to which no test compound was added
# B: Absorbance of wells to which no cell suspension was added
row,IC50 [µM],Structure (SMILES)
1,0.99,"COc1cc(Cl)ccc1S(=O)(=O)N[C@H](c1n[nH]c(=O)o1)[C@H](C)c1c(F)ccc(-c2cn[nH]c2)c1C [Example 303, 4-chloro-N-((1S,2R)-2-(6-fluoro-2-methyl-3-(1H-pyrazol-4-yl)phenyl)-1-(5-oxo-4,5-dihydro-1,3,4-oxadiazol-2-yl)propyl)-2-methoxybenzenesulfonamide]"
2,0.25,"Cc1c(Cl)ccc(F)c1[C@@H](C)[C@H](NS(=O)(=O)c1ncc(Br)cc1C(N)=O)c1n[nH]c(=O)o1 [Example 254, 5-bromo-2-(N-((1S,2R)-2-(3-chloro-6-fluoro-2-methylphenyl)-1-(5-oxo-4,5-dihydro-1,3,4-oxadiazol-2-yl)propyl)sulfamoyl)nicotinamide]"
3,0.37,"Cc1ccc(F)c([C@@H](C)[C@H](NS(=O)(=O)c2ccc(Cl)c3c2OCCC3(O)C(F)(F)F)c2n[nH]c(=O)o2)c1C (single isomer, unassigned) [Example 220A]"
4,0.3,"Cc1ccc(F)c([C@@H](C)[C@@H](c2n[nH]c(=O)o2)N(C)S(=O)(=O)c2ccc(Cl)cc2C(N)=O)c1C [Example 337, 5-chloro-2-(N-((1S,2R)-2-(6-fluoro-2,3-dimethylphenyl)-1-(5-oxo-4,5-dihydro-1,3,4 oxadiazol-2-yl)propyl)-N-methylsulfamoyl)benzamide]"
5,0.4,COc1nc(Cl)ccc1S(=O)(=O)N[C@H](c1n[nH]c(=O)o1)[C@H](C)c1c(F)ccc(C)c1C [Example 148]
6,0.5,"COc1cc(Cl)ccc1S(=O)(=O)N[C@H](c1n[nH]c(=O)o1)[C@H](C)c1c(F)ccc(C)c1C [Example 83, 4-chloro-N-((1S,2R)-2-(6-fluoro-2,3-dimethylphenyl)-1-(5-oxo-4,5-dihydro-1,3,4-oxadiazol-2-yl)propyl)-2-methoxybenzenesulfonamide]"
7,0.66,"Cc1ccc(F)c([C@@H](C)[C@H](NS(=O)(=O)c2ccc(Cl)c3c2OCCN3CC(F)F)c2n[nH]c(=O)o2)c1C [Example 102, 5-chloro-4-(2,2-difluoroethyl)-N-((1S,2R)-2-(6-fluoro-2,3-dimethylphenyl)-1-(5-oxo-4,5-dihydro-1,3,4-oxadiazol-2-yl)propy1)-3,4-dihydro-2H-benzo[b][1,4]oxazine-8-sulfonamide]"
8,0.87,"Cc1ccc(F)c([C@@H](C)[C@H](NS(=O)(=O)c2ccc(Cl)c(C(=O)N3CCC4(CC3)COC4)n2)c2n[nH]c(=O)o2)c1C [Example 156, 5-chloro-N-((1S,2R)-2-(6-fluoro-2,3-dimethylphenyl)-1-(5-oxo-4,5-dihydro-1,3,4-oxadiazol-2-yl)propyl)-6-(2-oxa-7-azaspiro[3.5]nonane-7-carbonyl)pyridine-2-sulfonamide]"
9,0.35,"COc1cc(S(=O)(=O)N[C@H](c2n[nH]c(=O)o2)[C@H](C)c2c(F)ccc(C)c2C)c(C(N)=O)cc1Cl [Example 259, 5-chloro-2-(N-((1S,2R)-2-(6-fluoro-2,3-dimethylphenyl)-1-(5-oxo-4,5-dihydro-1,3,4-oxadiazol-2-yl)propyl)sulfamoyl)-4-methoxybenzamide]"
10,0.32,"Cc1ccc(F)c([C@@H](C)[C@H](NS(=O)(=O)c2cc(C(C)(C)O)c(F)cc2C(N)=O)c2n[nH]c(=O)o2)c1C [Example 196, 5-fluoro-2-(N-((1S,2R)-2-(6-fluoro-2,3-dimethylphenyl)-1-(5-oxo-4,5-dihydro-1,3,4-oxadiazol-2-yl)propyl)sulfamoyl)-4-(2-hydroxypropan-2-yl)benzamide]"
11,0.12,"Cc1ccc(F)c([C@@H](C)[C@H](NS(=O)(=O)c2ncc(Br)cc2C(N)=O)c2n[nH]c(=O)o2)c1C [Example 250, 5-bromo-2-(N-((1S,2R)-2-(6-fluoro-2,3-dimethylphenyl)-1-(5-oxo-4,5-dihydro-1,3,4-oxadiazol-2-yl)propyl)sulfamoyl)nicotinamide]"
12,0.26,"COc1c(S(=O)(=O)N[C@H](c2n[nH]c(=O)o2)[C@H](C)c2c(F)ccc(C)c2C)ccc(Cl)c1C(C)(C)O [Example 212, 4-chloro-N-((1S,2R)-2-(6-fluoro-2,3-dimethylphenyl)-1-(5-oxo-4,5-dihydro-1,3,4-oxadiazol-2-yl)propyl)-3-(2-hydroxypropan-2-yl)-2-methoxybenzenesulfonamide]"
13,0.91,"Cc1ccc(F)c([C@@H](C)[C@H](NS(=O)(=O)c2ccc(Cl)c3cccnc23)c2n[nH]c(=O)o2)c1C [Example 153, 5-chloro-N-((1S,2R)-2-(6-fluoro-2,3-dimethylphenyl)-1-(5-oxo-4,5-dihydro-1,3,4-oxadiazol-2-yl)propyl)quinoline-8-sulfonamide]"
14,0.72,"Cc1ccc(F)c([C@@H](C)[C@H](NS(=O)(=O)c2cc3c(cc2C(N)=O)OCCO3)c2n[nH]c(=O)o2)c1C [Example 261, 7-(N-((1S,2R)-2-(6-fluoro-2,3-dimethylphenyl)-1-(5-oxo-4,5-dihydro-1,3,4-oxadiazol-2-yl)propyl)sulfamoyl)-2,3-dihydrobenzo[b][1,4]dioxin-6-carboxamide]"
15,0.6,"Cc1ccc(F)c([C@@H](C)[C@H](NS(=O)(=O)c2ccc(Cl)c(C(=O)N3CCOCC3)n2)c2n[nH]c(=O)o2)c1C [Example 113, 5-chloro-N-((1S,2R)-2-(6-fluoro-2,3-dimethylphenyl)-1-(5-oxo-4,5-dihydro-1,3,4-oxadiazol-2-yl)propyl)-6-(morpholine-4-carbonyl)pyridine-2-sulfonamide]"
16,0.15,"Cc1ccc(F)c([C@@H](C)[C@H](NS(=O)(=O)c2ccc(Cl)c3c2OCCN3C)c2n[nH]c(=O)o2)c1C [Example 288, 5-chloro-N-((1S,2R)-2-(6-fluoro-2,3-dimethylphenyl)-1-(5-oxo-4,5-dihydro-1,3,4-oxadiazol-2-yl)propyl)-4-methyl-3,4-dihydro-2H-benzo[b][1,4]oxazine-8-sulfonamide]"
17,0.08,"[2H]C([2H])([2H])C1(OC(C)=O)CCOc2c(S(=O)(=O)N[C@H](c3n[nH]c(=O)o3)[C@H](C)c3c(F)ccc(C)c3C)ccc(Cl)c21 (stereo partly drawn) [Example 129, 5-Chloro-8-(N-((1S,2R)-2-(6-fluoro-2,3-dimethylphenyl)-1-(5-oxo-4,5-dihydro-1,3,4-oxadiazol-2-yl)propyl)sulfamoyl)-4-methyl-d3-chroman-4-yl Acetate]"
18,0.28,"[2H]C([2H])([2H])[C@H](c1c(F)ccc(C)c1C)[C@H](NS(=O)(=O)c1ccc(Cl)cc1C(N)=O)c1n[nH]c(=O)o1 [Example 43, 5-chloro-2-[[(1S,2R)-3,3,3-trideuterio-2-(6-fluoro-2,3-dimethylphenyl)-1-(2-oxo-3H-1,3,4-oxadiazol-5-yl)propyl]sulfamoyl]benzamide]"
19,0.81,"Cc1ccc(F)c([C@@H](C)[C@H](NS(=O)(=O)c2ccc(Cl)c3c2OCC(=O)N3CC(F)F)c2n[nH]c(=O)o2)c1C [Example 101, 5-chloro-4-(2,2-difluoroethyl)-N-((1S,2R)-2-(6-fluoro-2,3-dimethylphenyl)-1-(5-oxo-4,5-dihydro-1,3,4-oxadiazol-2-yl)propyl)-3-oxo-3,4-dihydro-2H-benzo[b][1,4]oxazine-8-sulfonamide]"
20,0.98,"Cc1ccc(F)c([C@@H](C)[C@H](NS(=O)(=O)c2ccc(Cl)cc2-c2ccno2)c2n[nH]c(=O)o2)c1C [Example 91, 4-chloro-N-((1S,2R)-2-(6-fluoro-2,3-dimethylphenyl)-1-(5-oxo-4,5-dihydro-1,3,4-oxadiazol-2-yl)propyl)-2-(isoxazol-5-yl)benzenesulfonamide]"
21,0.49,"Cc1ccc(F)c([C@@H](C)[C@H](NS(=O)(=O)c2ccc(F)c3c2OCCC3O)c2n[nH]c(=O)o2)c1C (stereo partly drawn) [Example 241, 5-fluoro-N-((1S,2R)-2-(6-fluoro-2,3-dimethylphenyl)-1-(5-oxo-4,5-dihydro-1,3,4-oxadiazol-2-yl)propyl)-4-hydroxychroman-8-sulfonamide]"
22,0.39,"COc1c(S(=O)(=O)N[C@H](c2n[nH]c(=O)o2)[C@H](C)c2c(F)ccc(C)c2C)ccc(Cl)c1C(C)=O [Example 294, 3-acetyl-4-chloro-N-((1S,2R)-2-(6-fluoro-2,3-dimethylphenyl)-1-(5-oxo-4,5-dihydro-1,3,4-oxadiazol-2-yl)propyl)-2-methoxybenzenesulfonamide]"
23,0.95,"CCc1ccc(F)c([C@@H](C)[C@H](NS(=O)(=O)c2ccc(Br)cc2C(N)=O)c2n[nH]c(=O)o2)c1C [Example 96, 5-bromo-2-(N-((1S,2R)-2-(3-ethyl-6-fluoro-2-methylphenyl)-1-(5-oxo-4,5-dihydro-1,3,4-oxadiazol-2-yl)propyl)sulfamoyl)benzamide]"

# Same assay, conditions: read-out: Cell growth suppression IC50
row,IC50 [µM],Structure (SMILES)
1,0.78,"Cc1ccc(F)c([C@@H](C)[C@H](NS(=O)(=O)c2ccc(F)c3c2OCCC3O)c2n[nH]c(=O)o2)c1C (single isomer, unassigned) [Example 230B]"
2,0.29,"Cc1ccc(F)c([C@@H](C)[C@H](NS(=O)(=O)c2ccc(F)c3c2OCCC3O)c2n[nH]c(=O)o2)c1C (single isomer, unassigned) [Example 230A]"

row,Structure (SMILES),IC50 [µM]
1,"Cc1c(Cl)ccc(F)c1[C@@H](C)[C@H](NS(=O)(=O)c1ccc(Cl)c2c1OCCC2(C)O)c1n[nH]c(=O)o1 (single isomer, unassigned) [Example 209B]",0.82
